Test results: patent publication US8268845B2, “Tetrahydro- and dihydroquinazolinones” (Merck Patent GmbH, priority 2005, dated 2012)

## O=c1[nH]c(N2CCN(Cc3ccccc3)CC2)nc2c1CC(S(=O)(=O)c1ccccc1)CC2 (centres unmarked) [formula 13b, 2-(4-benzylpiperazin-1-yl)-6-Benzenesulfonyl-5,6,7,8-tetrahydroquinazolin-4(3H)-one]
  melting point: > 250 °C

## CC1CCc2nc(-c3ccccc3)[nH]c(=O)c2C1 (centres unmarked) [formula 10a, 6-Methyl-2-phenyl-5,6,7,8-tetrahydroquinazolin-4(3H)-one]
  melting point: 237 °C

## CSc1nc2c(c(=O)[nH]1)C=CCC2 [formula 6g, 2-Methylthio-7,8-dihydroquinazolin-4(3H)-one]
  melting point: 214 °C

## CC1=Cc2c(nc(-c3ccccc3)[nH]c2=O)CC1 [formula 11a, 6-Methyl-2-phenyl-7,8-dihydroquinazolin-4(3H)-one]
  melting point: 218 °C

## O=c1[nH]c(-c2ccccc2)nc2c1CCCC2 [formula 7a, 2-Phenyl-5,6,7,8-tetrahydroquinazolin-4(3H)-one]
  melting point: 224 °C

## CN1CCN(c2nc3c(c(=O)[nH]2)CCCC3)CC1
  melting point: 210 °C

## O=c1[nH]c(-c2ccc(Cl)cc2)nc2c1C=CCC2 [formula 6b, 2-(p-Chlorophenyl)-7,8-dihydroquinazolin-4(3H)-one]
  melting point: > 250 °C

## CCC1CCc2nc(-c3ccccc3)[nH]c(=O)c2C1 (centres unmarked) [formula 10b, 6-Ethyl-2-phenyl-5,6,7,8-tetrahydroquinazolin-4(3H)-one]
  melting point: 221 °C

## O=c1[nH]c(-c2ccc(Cl)cc2)nc2c1CCCC2 [formula 7b, 2-(p-Chlorophenyl)-5,6,7,8-tetrahydroquinazolin-4(3H)-one]
  melting point: 255 °C

## CCC1=Cc2c(nc(-c3ccccc3)[nH]c2=O)CC1 [formula 11b, 6-Ethyl-2-phenyl-7,8-dihydroquinazolin-4(3H)-one]
  melting point: 198 °C

## O=c1[nH]c(-c2ccccc2F)nc2c1C=CCC2 [formula 6d, 2-(o-Fluorophenyl)-7,8-dihydroquinazolin-4(3H)-one]
  melting point: 191 °C

## O=c1[nH]c(-c2ccccc2F)nc2c1CCCC2 [formula 7d, 2-(o-Fluorophenyl)-5,6,7,8-tetrahydroquinazolin-4(3H)-one]
  melting point: 170 °C

## CN1CCN(c2nc3c(c(=O)[nH]2)CC(S(=O)(=O)c2ccccc2)CC3)CC1 (centres unmarked) [formula 13c, 6-Benzenesulfonyl-2-(4-methylpiperazin-1-yl)-5,6,7,8-tetrahydroquinazolin-4(3H)-one]
  melting point: > 250 °C

## O=c1[nH]c(N2CCNCC2)nc2c1CCCC2
  melting point: 121 °C
